Reference: patent publication US20110086818A1, “METHODS, COMPOSITIONS, AND KITS FOR TREATING PAIN AND PRURITUS” (priority 2008, published 2011)

What was measured:
[1] = tested on: voltage-dependent sodium channels; assay: whole-cell voltage clamp recordings of sodium current in small (capsaicin-sensitive) DRG neurons; type: cell-based, rat; details: for inhibition (decrease) of sodium current: small capsaicin-sensitive DRG neurons, 5 mM QX-314 (5-minute application), 1 μM capsaicin (1-10 minutes), alone or together, steps from −70 mV, n=25
Procedure: We recorded current through voltage-dependent sodium channels using whole-cell voltage clamp recordings from adult rat DRG neurons. To select for nociceptors, we recorded from small (24±5 μm; n=25) neurons and tested the neurons for the expression of TRPV1 receptors by a short (1-sec) application of 1 μM capsaicin. In 25/25 of small neurons tested, capsaicin produced a prolonged (10±3 sec) inward current (FIG. 1A, upper panel), consistent with the neurons being nociceptors. Sodium currents were elicited by depolarizing steps from a holding potential of −70 mV.
(§1) Dorsal root ganglia from 6-8 week old Sprague-Dawley rats were removed and placed into Dulbecco's Minimum Essential Medium containing 1% penicillin-streptomycin (Sigma), then treated for 90 minutes with 5 mg/ml collagenase, 1 mg/ml Dispase II (Roche, Indianapolis, Ind.) and for 7 minutes with 0.25% trypsin, followed by addition of 2.5% trypsin inhibitor. Cells were triturated in the presence of DNAase I […] (50 U), centrifuged through 15% BSA (Sigma), resuspended in 1 ml Neurobasal medium (Sigma), 10 μM AraC, NGF (50 ng/ml) and GDNF (2 ng/ml) and plated onto poly-lysine (500 μg/ml) and laminin ([…]) coated 35 mm tissue culture dishes (Becton Dickinson) at 8000-9000 per well. Cultures were incubated at 37° C., 5% carbon dioxide. Recordings were made within 48 hours after plating. Average size of small neurons chosen as likely nociceptors was 23±6 μm (n=50) and that of large neurons was 48±8 μM (n=10).
Whole-cell voltage-clamp or current-clamp recordings were made using an Axopatch 200 A amplifier (Axon Instruments, Union City, Calif.) and patch pipettes with resistances of 1-2 MΩ. For voltage-clamp recordings pipette capacitance was reduced by wrapping the shank by Parafilm or coating the shank with Sylgard (Dow Corning, Midland, Mich.). Cell capacitance was compensated for using the amplifier circuitry, and linear leakage currents subtracted using a P/4 procedure. Series resistance (usually 3-7 MO and always less than 10 MΩ) was compensated by ˜80%. Voltage clamp recordings used solutions designed to isolate sodium currents by blocking potassium and calcium currents and with reduced external sodium to improve voltage clamp. Pipette solution was 110 mM CsCl, 1 mM CaCl2, 2 mM MgCl2, 11 mM EGTA, and 10 mM HEPES, pH adjusted to 7.4 with ˜25 mM CsOH. External solution was 60 mM NaCl, 60 mM choline chloride, 4 mM KCl, 2 mM CaCl2, 1 mM MgCl2, 0.1 mM CdCl2, 15 mM tetraethylammonium chloride, 5 mM 4-aminopyridine, 10 mM glucose, and 10 mM HEPES, pH adjusted to 7.4 with NaOH. No correction was made for the small liquid junction potential (−2.2 mV).
Command protocols were generated and data digitized using a Digidata 1200 A/D interface with pCLAMP 8.2 software (Axon Instruments, Union City, Calif.). […]

[2] = tested on: voltage-dependent sodium channels; assay: whole-cell voltage clamp recordings of sodium current in large (capsaicin-insensitive) DRG neurons; type: cell-based, rat; details: large DRG neurons (>40 μm); 10-minute application; n=10
Excerpt: To test whether the ability of co-applied capsaicin and QX-314 to inhibit sodium current is selective for cells that express TRPV1 receptors, we also recorded from large DRG neurons (soma diameter >40 μm) (FIG. 1A, right). […] As for small diameter neurons, QX-314 applied alone had little or no effect on sodium current (current increased by 8±4% after a 10-minute application, n=10). Unlike small diameter neurons, capsaicin had no effect on sodium current in large diameter neurons (average increase by 3±2% after a 10-minute application, n=10).
as §1, with “Average size of small neurons chosen as likely nociceptors was 23±6 μm (n=50) and that of large neurons was 48±8 μM (n=10).” left out

small DRG neurons = assay: current clamp recording of action potentials in small nociceptive-like DRG neurons; type: cell-based, rat; details: QX-314 5 mM, capsaicin 1 μM
adult rats [3] = assay: intraplantar injection, mechanical threshold for paw withdrawal (von Frey hairs); type: in vivo, rat; details: QX-314 10 μL of 2%, capsaicin 10 μg/10 μL, capsaicin effect at 15 and 30 minutes
Procedure: (§2) FIG. 3. Intraplantar injection of capsaicin (10 μg/10 μL) together with QX-314 (2%, 10 μL) leads to a prolonged local anesthesia to mechanical (von Frey filaments) and thermal noxious stimuli. […] (*=p<0.05, n=6 for each group). […] Arrow indicates cutoff, and numbers of animals not responding to strongest stimulus is indicated for time points with largest effects. (*=p<0.05, n=6 for each group).
We next examined if the combination of capsaicin and QX-314 can reduce pain behavior in vivo. […] In three animals the paw was insensitive to even the highest value von Frey filament (57 g). The elevated mechanical threshold lasted for about three hours and then gradually returned back to basal levels by four hours (FIG. 3A).
(§3) For intraplantar injections, rats were first habituated to handling and tests performed with the experimenter blind to the treatment. Intraplantar injections of vehicle (20% ethanol, 5% Tween 20 in saline, 10 μL) capsaicin (1 μg/μL), QX-314 (2%) or mixture of capsaicin and QX-314 into the left hindpaw were made and mechanical and thermal sensitivities determined using von Frey hairs and radiant heat respectively.

adult rats [4] = assay: intraplantar injection, thermal (radiant heat) response latency; type: in vivo, rat; details: QX-314 at 30 min, capsaicin at 15 and 30 min, combination 2 hours after injection, heat applied for 25 seconds
Procedure: as §2
Similar effects were seen examining sensitivity to a standardized noxious radiant heat stimulus. […] This effect remained for 4 hours after the injection (FIG. 3B).
as §3

rats [5] = assay: sciatic nerve injection, mechanical threshold (von Frey filaments); type: in vivo, rat; details: QX-314 0.2%, 100 μL, capsaicin 0.5 μg/μL, for 30 min after injection
Procedure: (§4) Motor effects were scored according to a scale of 0 (no effect; normal gait and limb placement), 1 (limb movement but with abnormal limb placement and movement) or 2 (complete loss of limb movement). […] For co-application of QX-314 and capsaicin into the para-sciatic nerve region, we injected QX-314 first, followed 10 minutes later by capsaicin, with the idea that QX-314 would be present extracellularly and ready to enter TRPV1 channels as soon as they were activated.
(§5) For sciatic nerve injections, animals were first habituated to handling for 10 days. Lidocaine (0.2% or 2%, 100 μL); QX-314 (0.2%, 100 μL) alone; capsaicin (50 μg in 100 μL) alone, or QX-314 followed by capsaicin (10 minutes interval) were injected into the area of sciatic nerve below the hip joint. Mechanical and thermal thresholds were determined using von Frey filaments and radiant heat. […] Walking, climbing, walking on the rod and placing reflex were examined. […] All experiments were done with the experimenter blinded.

rats [6] = assay: sciatic nerve injection, thermal (radiant heat) response latency; type: in vivo, rat; details: QX-314 0.2%, 100 μL, capsaicin 0.5 μg/μL, for 30 min after injection
Procedure: as §4, §5

rats [7] = assay: sciatic nerve injection, motor function score and placing reflex
Procedure: as §4, §5

TRPV1 receptors = molecular target: T1, TRPV1 receptors (Rattus norvegicus, UniProt O35433); assay: capsaicin-evoked inward current in DRG neurons (test for expression of TRPV1 receptors); type: cell-based
T1 construct: Dorsal root ganglia from 6-8 week old Sprague-Dawley rats were removed; endogenous in cells; host or cells: primary cultured dorsal root ganglion neurons from 6-8 week old Sprague-Dawley rats
Procedure: QX-314 (5 mM), capsaicin (1 μM or 500 nM), or their combination was applied using custom-designed multibarrel fast drug delivery system placed about 200-250 μm from the neuron. Solution exchange was complete in less than a second.

adult rats [8] = assay: intraplantar injection, spontaneous flinching; type: in vivo, rat; details: first 5 minutes after intraplantar injection; capsaicin 10 μg/10 μL, QX-314 2%
[9] = hindpaw injection, acute pain-related response (flinches) and analgesia (FIG. 8); type: in vivo; details: injection into the hindpaw, flinches (FIG. 8)
[10] = small neurons, 1-sec application of 1 μM capsaicin

T1 sequence (O35433 whole entry): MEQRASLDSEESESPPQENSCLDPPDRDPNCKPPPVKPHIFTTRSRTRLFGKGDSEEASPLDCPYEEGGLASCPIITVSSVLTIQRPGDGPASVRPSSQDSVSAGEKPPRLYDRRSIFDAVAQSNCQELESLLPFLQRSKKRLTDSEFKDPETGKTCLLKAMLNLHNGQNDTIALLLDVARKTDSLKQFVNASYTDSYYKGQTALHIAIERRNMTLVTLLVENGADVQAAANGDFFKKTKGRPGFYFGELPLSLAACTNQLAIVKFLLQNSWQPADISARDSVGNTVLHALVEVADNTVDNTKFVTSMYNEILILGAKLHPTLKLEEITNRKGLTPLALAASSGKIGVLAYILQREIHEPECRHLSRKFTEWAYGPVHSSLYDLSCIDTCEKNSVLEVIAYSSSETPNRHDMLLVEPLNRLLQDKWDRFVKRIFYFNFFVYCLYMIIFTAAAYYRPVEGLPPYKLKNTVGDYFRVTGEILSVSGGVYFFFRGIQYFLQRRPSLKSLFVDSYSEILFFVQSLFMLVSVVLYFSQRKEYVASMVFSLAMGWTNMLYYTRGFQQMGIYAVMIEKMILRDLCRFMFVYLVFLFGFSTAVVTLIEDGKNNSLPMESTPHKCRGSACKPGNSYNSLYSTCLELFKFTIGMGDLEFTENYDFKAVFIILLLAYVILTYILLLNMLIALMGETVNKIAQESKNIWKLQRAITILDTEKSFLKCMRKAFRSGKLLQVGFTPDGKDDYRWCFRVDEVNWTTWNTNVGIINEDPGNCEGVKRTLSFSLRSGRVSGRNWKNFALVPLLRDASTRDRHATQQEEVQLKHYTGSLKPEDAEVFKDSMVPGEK

effect on motor function (rats [7]; rat, in vivo) | duration of complete loss of tactile stimulus-evoked placing reflex (rats [7]; rat, in vivo) | time to full recovery of sensory and motor deficits (rats [7]; rat, in vivo) [min] | Compound | effect of external application on sodium channels ([1]; external QX-314 alone) | inhibition (decrease) of sodium current [1] [%] | increase of sodium current [2] [%] | effect on action potential generation / amplitude (small DRG neurons) | effect on mechanical threshold for withdrawal response (adult rats [3]) | effect on thermal response latency (noxious radiant heat) (adult rats [4]) | effect on mechanical threshold (rats [5]) | effect on thermal response latency (rats [6]) | inward current in large DRG neurons (TRPV1 receptors; large DRG neurons, soma diameter >40 μm, 10 of 10) | duration of prolonged inward current (TRPV1 receptors; [10]) [s] | small neurons tested in which an inward current was produced (TRPV1 receptors; [10]) | flinches in 5 min (adult rats [8]) [flinches] | mean motor score (rats [7]; scale 0-2, sciatic injection, lidocaine 2% at 30 minutes, capsaicin 0.5 μg/μL, 100 μL, QX-314 0.2%, 100 μL followed 10 minutes later by capsaicin) | duration of acute pain-related response following injection [9] | inhibition of sodium current ([1]; small dorsal root ganglion neurons, eugenol alone (FIG. 5))
no effect on motor function | – | – | CC[N+](CC)(CC)CC(=O)Nc1c(C)cccc1C [QX-314] | no effect | 3±0.5 | 8±4 | had no effect | no significant effect | transiently reduced the thermal response latency | no significant effect | no significant effect | – | – | – | – | – | – | –
– | – | – | COc1cc(CNC(=O)CCCC/C=C/C(C)C)ccc1O [capsaicin] | – | 31±9 | 3±2 | reduced the action potential amplitude | significantly reduced the mechanical threshold | reduced | reduced | reduced | did not elicit an inward current | 10 ± 3 | 25/25 | 40±6 | 0.7±0.2 | approximately 15 min | –
– | – | – | C=CCc1ccc(O)c(OC)c1 [eugenol, 2-methoxy-4-(2-propenyl)phenol] | – | – | – | – | – | – | – | – | – | – | – | – | – | – | 10-20%
complete paralysis of the lower limb | at least 30 minutes | ≤ 45 | CCN(CC)CC(=O)Nc1c(C)cccc1C [lidocaine] | – | – | – | – | – | – | – | – | – | – | – | – | – | – | –
